According to patent US11040970B2, “VMAT2 inhibitor compounds and compositions thereof” (Neurocrine Biosciences, Inc., priority 2017, dated 2021):
pKi: −log10 of the molar value.

Each compound was assayed against VMAT2 (Homo sapiens (Human), UniProt Q05940) (assay: VMAT2 radioligand binding assay: competition against 3H-dihydrotetrabenezine on human platelet homogenate (modified procedure)). Conditions: 10 nM 3H-dihydrotetrabenezine, 25° C., 90 minutes.
VMAT2, sequence (Q05940 whole entry): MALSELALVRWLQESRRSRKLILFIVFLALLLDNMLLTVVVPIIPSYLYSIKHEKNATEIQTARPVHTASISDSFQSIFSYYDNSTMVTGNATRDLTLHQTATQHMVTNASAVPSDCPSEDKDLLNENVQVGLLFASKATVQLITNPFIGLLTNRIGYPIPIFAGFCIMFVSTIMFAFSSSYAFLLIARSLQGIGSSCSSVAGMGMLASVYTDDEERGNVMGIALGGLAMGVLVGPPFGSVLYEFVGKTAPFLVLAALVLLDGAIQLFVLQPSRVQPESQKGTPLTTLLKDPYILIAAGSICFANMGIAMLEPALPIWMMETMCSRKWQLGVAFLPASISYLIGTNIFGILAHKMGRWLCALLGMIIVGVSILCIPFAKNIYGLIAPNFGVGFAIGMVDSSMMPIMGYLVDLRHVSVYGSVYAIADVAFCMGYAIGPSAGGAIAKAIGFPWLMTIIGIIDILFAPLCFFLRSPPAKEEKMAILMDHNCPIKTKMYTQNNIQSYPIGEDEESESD
Method: Examples of techniques for determining the capability of a compound to inhibit VMAT2 are provided below. The procedure is adapted from that described previously (see, e.g., Near, (1986), Mol. Pharmacol. 30: 252-57; Teng, et al., J. Neurochem. 71, 258-65, 1998). Homogenates from human platelets or Sprague-Dawley rat forebrain were prepared by homogenization and then washed by centrifugation as described previously (see, e.g., Hoare et al., (2003) Peptides 24:1881-97). […] Following incubation at 25° C. for two hours, bound radioligand was collected by rapid filtration onto GF/B glass fiber filters using a Unifilter-96 Harvester (PerkinElmer). Filter plates were pre-treated for 10 minutes with 0.1% polyethylenimine, and following harvesting the filter plates were washed with 800 μl VMAT2 binding buffer. Bound radioligand was quantified by scintillation counting using a Topcount NXT (PerkinElmer).
Following incubation at 25° C. for 90 minutes, bound radioligand was collected by rapid filtration onto GF/B glass fiber filters using a Unifilter-96 Harvester (PerkinElmer). Filter plates were pre-treated with 0.1% polyethylenimine and allowed to dry overnight, and following harvesting the filter plates were washed with 800 μl VMAT2 binding buffer. Bound radioligand was quantified by scintillation counting using a Topcount NXT (PerkinElmer).
For CCN1C[C@@H]2c3cc(OC)c(OC)cc3CCN2C[C@H]1CC(C)C [Compound 2-1, (3R,11bS)-2-ethyl-9,10-dimethoxy-3-(2-methylpropyl)-1H,2H,3H,4H,6H,7H,11bH-piperazino[2,1-a]isoquinoline], the pKi was 6.30 to 8.00. COc1cc2c(cc1OC)[C@H]1CN(C)[C@H](CC(C)C)CN1CC2 [Compound 2-2, (3R,11bS)-9,10-dimethoxy-2-methyl-3-(2-methylpropyl)-1H,2H,3H,4H,6H,7H,11bH-piperazino[2,1-a]isoquinoline] showed a pKi of 6.30 to 8.00. Work on COc1cc2c(cc1OC)[C@H]1CN(CC(C)C)[C@H](CC(C)C)CN1CC2 [Compound 2-3, (3R,11bS)-9,10-dimethoxy-2,3-bis(2-methylpropyl)-1H,2H,3H,4H,6H,7H,11bH-piperazino[2,1-a]isoquinoline] yielded a pKi of less than 6.30. In the case of CCN1C[C@H]2c3cc(OC)c(OC)cc3CCN2C[C@H]1CC(C)C [Compound 3-1, (3R,11bR)-2-ethyl-9,10-dimethoxy-3-(2-methylpropyl)-1H,2H,3H,4H,6H,7H,11bH-piperazino[2,1-a]isoquinoline], the pKi was less than 6.30. COc1cc2c(cc1OC)[C@@H]1CN(C)[C@H](CC(C)C)CN1CC2 [Compound 3-2, (3R,11bR)-9,10-dimethoxy-2-methyl-3-(2-methylpropyl)-1H,2H,3H,4H,6H,7H,11bH-piperazino[2,1-a]isoquinoline] showed a pKi of less than 6.30. COc1cc2c(cc1OC)[C@@H]1CN(CC(C)C)[C@H](CC(C)C)CN1CC2 [Compound 3-3, (3R,11bR)-9,10-dimethoxy-2,3-bis(2-methylpropyl)-1H,2H,3H,4H,6H,7H,11bH-piperazino[2,1-a]isoquinoline] was tested, and the pKi was less than 6.30. Compound CCOc1cc2c(cc1OC)[C@H]1CN(C)[C@H](CC(C)C)CN1CC2 [Compound 5-1, (3R,11bS)-9-ethoxy-10-methoxy-2-methyl-3-(2-methylpropyl)-1H,2H,3H,4H,6H,7H,11bH-piperazino[2,1-a]isoquinoline] has a pKi greater than 8.00. COc1cc2c(cc1OC(C)C)CCN1C[C@@H](CC(C)C)N(C)C[C@H]21 [Compound 5-2, (3R,11bS)-10-methoxy-2-methyl-3-(2-methylpropyl)-9-(propan-2-yloxy)-1H,2H,3H,4H,6H,7H,11bH-piperazino[2,1-a]isoquinoline] gave a pKi of 6.30 to 8.00. COc1cc2c(cc1OCCCF)CCN1C[C@@H](CC(C)C)N(C)C[C@H]21 [Compound 5-3, (3R,11bS)-9-(3-fluoropropoxy)-10-methoxy-2-methyl-3-(2-methylpropyl)-1H,2H,3H,4H,6H,7H,11bH-piperazino[2,1-a]isoquinoline] was tested, and the pKi was 6.30 to 8.00. COc1cc2c(cc1OCCF)CCN1C[C@@H](CC(C)C)N(C)C[C@H]21 [Compound 5-4, (3R,11bS)-9-(2-fluoroethoxy)-10-methoxy-2-methyl-3-(2-methylpropyl)-1H,2H,3H,4H,6H,7H,11bH-piperazino[2,1-a]isoquinoline] gave a pKi of 6.30 to 8.00. In the case of COc1cc2c(cc1OC1CC1)CCN1C[C@@H](CC(C)C)N(C)C[C@H]21 [Compound 5-5, (3R,11bS)-9-cyclopropoxy-10-methoxy-2-methyl-3-(2-methylpropyl)-1H,2H,3H,4H,6H,7H,11bH-piperazino[2,1-a]isoquinoline], the pKi was 6.30 to 8.00. CCCOc1cc2c(cc1OC)[C@H]1CN(C)[C@H](CC(C)C)CN1CC2 [Compound 5-6, (3R,11bS)-10-methoxy-2-methyl-3-(2-methylpropyl)-9-propoxy-1H,2H,3H,4H,6H,7H,11bH-piperazino[2,1-a]isoquinoline] showed a pKi greater than 8.00. In the case of COc1cc2c(cc1OC1CCCC1)CCN1C[C@@H](CC(C)C)N(C)C[C@H]21 [Compound 5-7, (3R,11bS)-9-(cyclopentyloxy)-10-methoxy-2-methyl-3-(2-methylpropyl)-1H,2H,3H,4H,6H,7H,11bH-piperazino[2,1-a]isoquinoline], the pKi was greater than 8.00. For C=CCOc1cc2c(cc1OC)[C@H]1CN(C)[C@H](CC(C)C)CN1CC2 [Compound 5-8, (3R,11bS)-10-methoxy-2-methyl-3-(2-methylpropyl)-9-(prop-2-en-1-yloxy)-1H,2H,3H,4H,6H,7H,11bH-piperazino[2,1-a]isoquinoline], the pKi was greater than 8.00. COc1cc2c(cc1OCC(C)C)CCN1C[C@@H](CC(C)C)N(C)C[C@H]21 [Compound 5-9, (3R,11bS)-10-methoxy-2-methyl-9-(2-methylpropoxy)-3-(2-methylpropyl)-1H,2H,3H,4H,6H,7H,11bH-piperazino[2,1-a]isoquinoline] gave a pKi greater than 8.00. With COCCOc1cc2c(cc1OC)[C@H]1CN(C)[C@H](CC(C)C)CN1CC2 [Compound 5-10, (3R,11bS)-10-methoxy-9-(2-methoxyethoxy)-2-methyl-3-(2-methylpropyl)-1H,2H,3H,4H,6H,7H,11bH-piperazino[2,1-a]isoquinoline] the pKi was 6.30 to 8.00. Compound COc1cc2c(cc1OCC1CCC1)CCN1C[C@@H](CC(C)C)N(C)C[C@H]21 [Compound 5-11, (3R,11bS)-9-(cyclobutylmethoxy)-10-methoxy-2-methyl-3-(2-methylpropyl)-1H,2H,3H,4H,6H,7H,11bH-piperazino[2,1-a]isoquinoline] has a pKi greater than 8.00. Compound COc1cc2c(cc1OCCCC#N)CCN1C[C@@H](CC(C)C)N(C)C[C@H]21 [Compound 5-12, 4-{[(3R,11bS)-10-methoxy-2-methyl-3-(2-methylpropyl)-1H,2H,3H,4H,6H,7H,11bH-piperazino[2,1-a]isoquinolin-9-yl]oxy}butanenitrile] has a pKi of 6.30 to 8.00. Work on COc1cc2c(cc1OCCCC(F)(F)F)CCN1C[C@@H](CC(C)C)N(C)C[C@H]21 [Compound 5-13, (3R,11bS)-10-methoxy-2-methyl-3-(2-methylpropyl)-9-(4,4,4-trifluorobutoxy)-1H,2H,3H,4H,6H,7H,11bH-piperazino[2,1-a]isoquinoline] yielded a pKi greater than 8.00. Compound COc1cc2c(cc1OCCCCF)CCN1C[C@@H](CC(C)C)N(C)C[C@H]21 [Compound 5-14, (3R,11bS)-9-(4-fluorobutoxy)-10-methoxy-2-methyl-3-(2-methylpropyl)-1H,2H,3H,4H,6H,7H,11bH-piperazino[2,1-a]isoquinoline] has a pKi greater than 8.00. Compound COc1cc2c(cc1OCC1CC1)CCN1C[C@@H](CC(C)C)N(C)C[C@H]21 [Compound 5-15, (3R,11bS)-9-(cyclopropylmethoxy)-10-methoxy-2-methyl-3-(2-methylpropyl)-1H,2H,3H,4H,6H,7H,11bH-piperazino[2,1-a]isoquinoline] has a pKi greater than 8.00. For COc1cc2c(cc1OC1CCC1)CCN1C[C@@H](CC(C)C)N(C)C[C@H]21 [Compound 5-16, (3R,11bS)-9-cyclobutoxy-10-methoxy-2-methyl-3-(2-methylpropyl)-1H,2H,3H,4H,6H,7H,11bH-piperazino[2,1-a]isoquinoline], the pKi was greater than 8.00. COc1cc2c(cc1OCC(F)(F)F)CCN1C[C@@H](CC(C)C)N(C)C[C@H]21 [Compound 5-17, (3R,11bS)-10-methoxy-2-methyl-3-(2-methylpropyl)-9-(2,2,2-trifluoroethoxy)-1H,2H,3H,4H,6H,7H,11bH-piperazino[2,1-a]isoquinoline] showed a pKi greater than 8.00. COc1cc2c(cc1OCC1CC1(F)F)CCN1C[C@@H](CC(C)C)N(C)C[C@H]21 (stereo partly drawn) [Compound 5-18, (3R,11bS)-9-[(2,2-difluorocyclopropyl)methoxy]-10-methoxy-2-methyl-3-(2-methylpropyl)-1H,2H,3H,4H,6H,7H,11bH-piperazino[2,1-a]isoquinoline] showed a pKi greater than 8.00.
